Where “and” joins values, the source holds several entries; their conditions need not be identical. Identical values can stand only once.
Experiments:
[1] = cited from earlier work
[2] = system: Aspergillus niger; test: Fungal evaluation: growth prevention of Aspergillus niger in mineral salts-glucose medium, synergism by the method of Kull; type: cell-based; conditions: for X (QA/Qa+QB/Qb), Test 1 / X (QA/Qa+QB/Qb), Test 2 / X (QA/Qa+QB/Qb), Test 3: combination of S-chloromethyl-S'-hexylcyanodithioimidocarbimate (A) with the named second microbicide (B), Aspergillus niger, 7 days, 25° C., X<1 synergistic, X=1 additive, X>1 antagonistic; for QA = lowest concentration of compound A in the mixture which produced an end point: compound A in mixture with the named compound B; for Qb = lowest concentration of compound B acting alone which produced an end point: named compound B alone; for QB = lowest concentration of compound B in the mixture which produced an end point: named compound B in mixture with compound A
Procedure: Mineral salts-glucose medium was used. To prepare the medium, the following ingredients were added to 1 liter of deionized water: 0.7 g of KH2PO4; 0.7 g of MgSO4·7H2O; 1.0 g of HN4NO3; 0.005 g of NaCl; 0.002 g of FeSO4·7H2O; 0.002 g ZnSO4·7H2O; 0.001 g of MnSO4·7H2O; 10 g of Glucose. The pH of the medium was adjusted to 6 with 1N NaOH. The medium was distributed in 5 ml amounts in test tubes and autoclaved at 121° C. for 20 minutes. The fungus, Aspergillus niger, was grown on potato dextrose agar slant for 5 to 10 days and a spore suspension prepared by washing down the spores from the slant into a sterile saline solution. After addition of the biocides in the desired concentrations in the sterile mineral salts-glucose medium, the fungal spore suspension was added. The final spore concentration was approximately 10^6 cfu/ml. The inoculated media was incubated at 25° C. for 7 days. The experimental design is termed a […] in which each test concentration of compound A is combined with each test concentration of compound B.
End points for the various mixtures were then compared with the end points for the pure active ingredients alone in concomitantly prepared flasks or test tubes.
When the sum of QA/Qa and QB/Qb is greater than one, antagonism is indicated. When the sum is equal to one, additivity is indicated. When the sum is less than one, synergism exists.
For: X<1 A and B are synergistic • X=1 A and B are additive • X>1 A and B are antagonistic For combinations of cyanodithiocarbimate with the selected second microbicide, the calculated values of X in each case are: […]

[3] = complete prevention of growth of Aspergillus niger for seven days

Structure (SMILES)	solubility in water [1]	X (QA/Qa+QB/Qb), Test 1 [2]	X (QA/Qa+QB/Qb), Test 2 [2]	QA = lowest concentration of compound A in the mixture which produced an end point [2, 3]	Qb = lowest concentration of compound B acting alone which produced an end point [2, 3]	QB = lowest concentration of compound B in the mixture which produced an end point [2, 3]	X (QA/Qa+QB/Qb), Test 3 [2]	Qa = concentration of compound A acting alone which produced an end point ([2]; compound A alone, run concomitantly with the compound B, complete prevention of growth of Aspergillus niger for seven days)
O=C(CBr)OC/C=C\COC(=O)CBr [BBAB, 1,4-bis(bromoacetoxy)-2-butene]	extremely low	–	–	–	–	–	–	–
CCCCNC(=O)OCC#CI [IPBC, 3-iodo-2-propynyl butyl carbamate]	–	0.86	0.3	0.025 ppm active ingredient	0.35 ppm active ingredient	0.05 ppm active ingredient	–	–
CCCCCCCCn1sccc1=O [2-N-octyl-4-isothiazolin-3-one]	–	0.64	–	0.1 ppm active ingredient	>0.175 ppm active ingredient	0.025 ppm active ingredient	–	–
CCCCCCCCn1sc(Cl)c(Cl)c1=O [4,5-dichloro-2-N-octyl-4-isothiazolin-3-one]	–	0.7	0.5	0.05 ppm active ingredient	0.2 ppm active ingredient	0.1 ppm active ingredient	–	–
O=C(CBr)c1ccc(O)cc1 [BHAP, 2-bromo-4′-hydroxyacetophenone]	–	1.22	1.0	0.3 ppm active ingredient	>8.0 ppm active ingredient	1.0 ppm active ingredient	0.8	–
N#CSCSC#N [MTC, Methylene-bis(thiocyanate)]	–	0.64	0.46	0.05 ppm active ingredient	>0.7 ppm active ingredient	0.1 ppm active ingredient	0.29	–
N#CSCSc1nc2ccccc2s1 [TCMTB, 2-(Thiocyanomethylthio)benzothiazole]	–	0.27	0.25	0.15 ppm active ingredient	1.0 ppm active ingredient	0.05 ppm active ingredient	0.7	–
CCCCCCSC(=NC#N)SCCl [Compound A, S-Hexyl-S′-chloromethylcyanodithiocarbimate]	–	–	–	–	–	–	–	0.3 ppm active ingredient and 0.25 ppm active ingredient and 0.175 ppm active ingredient and 0.35 ppm active ingredient and 0.2 ppm active ingredient
